test: method code SF-AS, from DOI: 10.1111/j.2042-7158.1991.tb06664.x, PMID: 1675277

Question: Which logP does the source give for `N#Cc1ccc(S(=O)(=O)c2ccc(N)cc2)cc1` here?
Answer: 1.63

Question: Which logP does the source give for `CCN(CC)c1ccc(S(=O)(=O)c2ccc(N)cc2)cc1` here?
Answer: 3

Question: For `Cc1cc(C)c(S(=O)(=O)c2ccc(N)cc2)c(C)c1`, which logP is on record?
Answer: 3.06

Question: Which logP does the source give for `COc1ccc(S(=O)(=O)c2ccc(N)cc2)cc1` here?
Answer: 1.96

Question: For `Nc1ccc(S(=O)(=O)c2ccc(NO)cc2)cc1`, which logP is on record?
Answer: 0.88

Question: For `CCN(CC)C(=O)c1ccc(S(=O)(=O)c2ccc(N)cc2)cc1`, which logP is on record?
Answer: 1.44

Question: For `Cc1ccc(S(=O)(=O)c2ccc(N)cc2)cc1`, which logP is on record?
Answer: 2.4

Question: For `NC(=O)c1ccc(S(=O)(=O)c2ccc(N)cc2)cc1`, which logP is on record?
Answer: 0.9

Question: For `Nc1ccc(S(=O)(=O)c2ccc(Cl)cc2)cc1`, which logP is on record?
Answer: 2.57

Question: With `Nc1ccc(S(=O)(=O)c2ccc(N)cc2N)cc1` as the compound, how does the logP read?
Answer: 0.38

Question: With `Nc1ccc(S(=O)(=O)c2ccc(F)cc2)cc1` as the compound, how does the logP read?
Answer: 2.01

Question: With `COc1cc(OC)c(S(=O)(=O)c2ccc(N)cc2)c(OC)c1` as the compound, how does the logP read?
Answer: 1.03

Question: Which logP does the source give for `CCNc1ccc(S(=O)(=O)c2ccc(N)cc2)cc1` here?
Answer: 1.98

Question: For `Nc1ccc(S(=O)(=O)c2ccc(Cl)cc2Cl)cc1`, which logP is on record?
Answer: 3.12

Question: For `CC(=O)c1ccc(S(=O)(=O)c2ccc(N)cc2)cc1`, which logP is on record?
Answer: 1.67

Question: With `Nc1ccc(S(=O)(=O)c2ccc(O)cc2)cc1` as the compound, how does the logP read?
Answer: 1.57

Question: Which logP does the source give for `Nc1ccc(S(=O)(=O)c2cccc(N)c2)cc1` here?
Answer: 1.03

Question: For `Nc1ccc(S(=O)(=O)c2ccccc2N)cc1`, which logP is on record?
Answer: 1.56

Question: Which logP does the source give for `Nc1ccc(S(=O)(=O)c2ccc(O)cc2O)cc1` here?
Answer: 1.29

Question: Which logP does the source give for `Nc1ccc(S(=O)(=O)c2c(O)cc(O)cc2O)cc1` here?
Answer: 1.53

test: not given

Question: With `Nc1ccc(S(=O)(=O)c2ccc(Br)cc2)cc1` as the compound, how does the logP read?
Answer: 3.15

Question: For `Cc1ccc(S(N)(=O)=O)cc1`, which logP is on record?
Answer: 0.83

Question: With `CC(=O)c1ccc(S(N)(=O)=O)cc1` as the compound, how does the logP read?
Answer: 0.31

Question: With `NS(=O)(=O)c1ccccc1` as the compound, how does the logP read?
Answer: 0.33

Question: With `NS(=O)(=O)c1ccc(S(N)(=O)=O)cc1` as the compound, how does the logP read?
Answer: -0.7

Question: For `COc1ccc(S(=O)(=O)c2ccc(N)cc2)c(OC)c1`, which logP is on record?
Answer: 1.65

Question: With `N#Cc1cccc(S(N)(=O)=O)c1` as the compound, how does the logP read?
Answer: 0.27

Question: Which logP does the source give for `COc1cccc(S(N)(=O)=O)c1` here?
Answer: 0.65

Question: Which logP does the source give for `Cc1ccc(S(=O)(=O)c2ccc(N)cc2)c(C)c1` here?
Answer: 2.69

Question: For `N#Cc1ccc(S(N)(=O)=O)cc1`, which logP is on record?
Answer: 0.4

Question: With `NS(=O)(=O)c1cccc([N+](=O)[O-])c1` as the compound, how does the logP read?
Answer: 0.6

Question: With `Nc1ccc(S(=O)(=O)c2ccc([N+](=O)[O-])cc2[N+](=O)[O-])cc1` as the compound, how does the logP read?
Answer: 1.84

Question: Which logP does the source give for `NC(=O)c1cccc(S(N)(=O)=O)c1` here?
Answer: -0.55

Question: For `COC(=O)c1ccc(S(=O)(=O)c2ccc(N)cc2)cc1`, which logP is on record?
Answer: 2.13

Question: For `CN(C)c1ccc(S(=O)(=O)c2ccc(N)cc2)cc1`, which logP is on record?
Answer: 1.93

Question: Which logP does the source give for `Nc1ccc(S(=O)(=O)c2ccccc2)cc1` here?
Answer: 1.84

Question: With `Nc1ccc(S(=O)(=O)c2ccc([N+](=O)[O-])cc2)cc1` as the compound, how does the logP read?
Answer: 2.03

Question: Which logP does the source give for `NC(=O)c1ccc(S(N)(=O)=O)cc1` here?
Answer: -0.66

Reference: the SangsterLogP compilation
